Marks after values point to notes of the source that are not given here.
How the values were obtained:
[1] = target: T1, microsomal fatty acid amide hydrolase (FAAH) (Homo sapiens, UniProt O00519); test: Lowest detection limits of microsomal FAAH toward colorimetric and fluorescent substrates; type: biochemical
T1 construct: made in house; host or cells: Trichoplusia ni High Five cells infected with recombinant baculovirus Ac-hFAAH; microsomal fraction
T1 sequence (O00519 1-579): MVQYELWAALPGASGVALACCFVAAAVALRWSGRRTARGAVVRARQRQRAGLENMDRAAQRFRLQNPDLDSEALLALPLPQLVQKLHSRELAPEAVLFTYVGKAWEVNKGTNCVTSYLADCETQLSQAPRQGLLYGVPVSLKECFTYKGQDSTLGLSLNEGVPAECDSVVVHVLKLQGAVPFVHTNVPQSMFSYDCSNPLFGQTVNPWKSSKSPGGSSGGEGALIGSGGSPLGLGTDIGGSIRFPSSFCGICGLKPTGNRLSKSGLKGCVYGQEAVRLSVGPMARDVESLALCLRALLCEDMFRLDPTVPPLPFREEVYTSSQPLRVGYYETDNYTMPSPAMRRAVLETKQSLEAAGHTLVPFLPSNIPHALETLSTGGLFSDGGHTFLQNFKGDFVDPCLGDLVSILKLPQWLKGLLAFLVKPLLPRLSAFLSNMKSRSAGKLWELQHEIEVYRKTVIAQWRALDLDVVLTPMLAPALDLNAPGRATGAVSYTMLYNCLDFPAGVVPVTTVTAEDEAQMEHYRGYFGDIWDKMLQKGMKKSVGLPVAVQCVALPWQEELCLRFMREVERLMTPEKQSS
Description: Preparation of recombinant human FAAH. Transgenic expression of the human FAAH in a baculovirus system was performed by following the method described in Nishi et al., Arch. Biochem. Biophys., 445:115-123 (2006). The cDNA encoding human FAAH (GenBank Accession No. NM_001441) was amplified by PCR using a human liver cDNA library (Invitrogen; Carlsbad, Calif.) as a template. The primer pair was 5′-[…]-3′ and 5′-[…]-3′. BglII and EcoRI endonuclease sites (underlined) were incorporated just upstream of the start codon and downstream of the stop codon of the coding sequence of FAAH, respectively. The PCR products were cloned into a pCR2.1 vector (Invitrogen) and the nucleotide sequence was verified by DNA sequencing. The cDNA fragments were then excised and directionally ligated to the BglII and EcoRI sites of the baculovirus transfer vector pAcUW21 (Lopez-Ferber et al., Baculovirus transfer vectors, in “Baculovirus Expression Protocols,” Richardson (Ed.), pp 25-63, Humana Press, Totowa, N.J., 1995). Recombinant baculoviruses harboring the human FAAH gene, Ac-hFAAH, were generated by co-transfection of Spodoptera frugiperda-derived Sf21 cells with the recombinant transfer vector plasmid and Bsu36I-cleaved BacPAK6 viral DNA (Clontech Laboratories; Mountain View, Calif.) as described in O'Reilly et al., Baculovirus Expression Vectors: A Laboratory Manual, Oxford University Press, New York, 1992. Trichoplusia ni-derived High Five cells (1×10^6 cells/ml) were inoculated with a high titer of Ac-hFAAH. At 72 hours post-infection, the infected cells were harvested by centrifugation at 2,000×g for 20 min at 4° C. and suspended in 50 mM Tris-HCl (pH 8.0) containing 150 mM NaCl, 1 mM EDTA, 1 μM pepstatin, 100 μM leupeptin, and 0.1 mg/ml aprotinin. The cell suspension was then homogenized using a Polytron homogenizer and centrifuged at 10,000×g for 20 min at 4° C. The microsomal fraction was collected by ultracentrifugation of the supernatant at 100,000×g for 60 min at 4° C. The pellet was resuspended in 20 mM Tris-HCl (pH 8.0) containing 10% (w/v) glycerol and 1% (w/v) Triton-X 100 and stored at −80° C. until use.
Comparison of the lowest detection limits of protein concentration of FAAH toward colorimetric and fluorescent substrates. In general, all assays were performed in 96-well styrene flat-bottom microtiter plates with a Spectra Max M2 spectrophotometer at 37° C. for […]. The total volume of each well was 201 μl consisting of 0.1 M sodium phosphate buffer (pH 8.0) (190 μl) containing 1% glycerol and 0.1% Triton-X 100, stock or diluted protein solution (10 μl), and the substrate solution (1 μl) in ethanol (final concentration 200 μM for 10, 11, 13 or 14) or in DMSO (final concentration 25 μM for 12, 15, or 16; 50 μM for 17). The lowest detection limits of microsomal fatty acid amide hydrolase (FAAH) by substrates were determined by the fact that the signal at 10 min after kinetic measurements are equal to or over three times the noise or basal line at 0 min. Colorimetric substrate (16) assays were performed in clear 96-well microtititer plates using an absorbance wavelength at 382 nm. The fluorescent substrates containing 5-amino-2-methoxypyridine (e.g., 10, 13) were measured at an excitation wavelength (302 nm), emission wavelength (396 nm), and auto cutoff wavelength (325 nm). Similarly, the fluorescent substrates containing 5-amino-2-methoxy-6-methylpyridine (e.g., 11, 14, and 17) were measured at an excitation wavelength (304 nm), emission wavelength (392 nm), and an auto cutoff wavelength of 325 nm. In addition, an excitation wavelength (366 nm), emission wavelength (496 nm), and auto cutoff wavelength (495 nm) were used for the substrates (e.g., 12 and 15) containing 7-amino-4-trifluoromethyl coumarin.

[2] = Dependence of relative fluorescent intensity on pH values; type: physicochemical; settings: 25 μM, pH 8, excitation 302 nm
Description: The dependence of relative fluorescent intensity on pH values. 5-amino-2-methoxypyridine (6) was used to determine whether protonization/de-protonization affects the relative fluorescent intensities of the reporters. A stock solution of (6) in ethanol (5 μl, 5 mM) was added to 995 μl 0.1 M sodium phosphate buffer (from pH 6.0 to pH 8.0) or 0.1 M Tris/HCl buffer (pH 9.0) in a quartz cuvette (final substrate concentration 25 μM). Relative fluorescent unit/intensity (RFU) for emission spectra was recorded by a 2 nm interval at room temperature using a fixed excitation wavelength (λ=302 nm). The RFU of each pH value was an average of triplicates and the standard deviation for each point was less than 1%. Similarly, the RFU of the excitation spectrum was recorded by a 2 nm interval at room temperature using a fixed emission wavelength (λ=396 nm) in 0.1 M phosphate buffer (pH 8.0).

Structure (SMILES): CCCCCCCC(=O)Nc1ccc(OC)nc1 [Compound 13, N-(6-methoxypyridin-3-yl) octanamide]
- base line, Average ([1]; 0 min, protein 0.11 (13), 0.67 (14), 100 (15), 0.5 (17) μg/well, 200 μM (13),(14), 25 μM (15), 50 μM (17)): 302 RFU
- signal, Average ([1]; 10 min, protein 0.11 (13), 0.67 (14), 100 (15), 0.5 (17) μg/well, 200 μM (13),(14), 25 μM (15), 50 μM (17)): 1091* RFU
- difference between (13) and (17) in limit of protein detection ([1]; Table 2): 5 times
- Protein, lowest detection limit of microsomal FAAH (signal at 10 min ≥ three times base line) ([1]; pH 8.0, 37° C., 200 μM (13), (14), 50 μM (17)): 0.11 μg/200 μ′
- lowest detection limit of protein ([1]; signal at 10 min equal to three times base line): 0.55 μg protein/ml
- relative fluorescent intensity of substrate emission at the maximal excitation wavelength of (6) [2]: less than 200 RFU

From US20100160391A1, “Substituted Aminopyridines as Fluorescent Reporters for Amide Hydrolases” (priority 2006, published 2010)
